Results: US8952024B2, “Herbicidal pyrimidone derivatives” (E I du Pont de Nemours and Company, priority 2009, dated 2015)

Key:
Assay type in all cases: in vivo
[1] = system: windgrass (Apera spica-venti); test: Test B postemergence plant response; settings: for Plant response rating, Windgrass: Postemergence, scale 0 to 100 (0 no effect, 100 complete control)
Summary of the method: (§1)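 Plants grown in peat/vermiculite medium were sprayed postemergence at 2–18 cm height (1- to 4-leaf stage). After 13–15 days in the greenhouse, response was rated visually against untreated controls on a 0–100 scale (0 no effect, 100 complete control).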

[2] = system: chickweed (Stellaria media); test: Test B postemergence plant response
Summary of the method: as §1

[3] = system: canarygrass (Phalaris minor); test: Test B postemergence plant response
Summary of the method: as §1

[4] = system: velvetleaf (Abutilon theophrasti); test: Test B pre-/postemergence plant response; settings: for Plant response rating, Velvetleaf: Postemergence, scale 0 to 100 (0 no effect, 100 complete control)
Summary of the method: (§2)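 Steps: sow seed in loam–sand soil and spray preemergence, or grow plants in peat-based medium to 1–4 leaves (2–18 cm) and spray postemergence; formulation is non-phytotoxic solvent plus surfactant; hold in greenhouse 13–15 days; score visually vs controls, 0 = no effect, 100 = complete control.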

[5] = system: johnsongrass (Sorghum halepense); test: Test B pre-/postemergence plant response
Summary of the method: as §2

[6] = system: yellow nutsedge (Cyperus esculentus); test: Test B pre-/postemergence plant response
Summary of the method: as §2

[7] = system: giant foxtail (Setaria faberii); test: Test B pre-/postemergence plant response
Summary of the method: as §2

[8] = system: bermudagrass (Cynodon dactylon); test: Test B pre-/postemergence plant response
Summary of the method: as §2

[9] = system: blackgrass (Alopecurus myosuroides); test: Test B pre-/postemergence plant response
Summary of the method: as §2

[10] = system: morningglory (Ipomoea coccinea); test: Test B pre-/postemergence plant response
Summary of the method: as §2

soybean (Glycine max) = test: Test B pre-/postemergence plant response; settings: for Plant response rating, Soybean: Postemergence, scale 0 to 100 (0 no effect, 100 complete control)
Summary of the method: as §2

[11] = system: wheat (Triticum aestivum); test: Test B pre-/postemergence plant response; settings: for Plant response rating, Wheat: Postemergence, scale 0 to 100 (0 no effect, 100 complete control)
Summary of the method: as §2

[12] = system: cocklebur (Xanthium strumarium); test: Test B pre-/postemergence plant response
Summary of the method: as §2

kochia (Kochia scoparia) = test: Test B pre-/postemergence plant response
Summary of the method: as §2

[13] = system: ragweed (common ragweed, Ambrosia elatior); test: Test B pre-/postemergence plant response; settings: for Plant response rating, Ragweed: Postemergence, scale 0 to 100 (0 no effect, 100 complete control)
Summary of the method: as §2

[14] = system: green foxtail (Setaria viridis); test: Test B pre-/postemergence plant response
Summary of the method: as §2

[15] = system: downy bromegrass (Bromus tectorum); test: Test B pre-/postemergence plant response
Summary of the method: as §2

wild oat (Avena fatua) = test: Test B pre-/postemergence plant response
Summary of the method: as §2

[16] = 62 g ai/ha, postemergence, 0 is no effect, 100 is complete control, 13 to 15 days
[17] = 31 g ai/ha, postemergence, scale 0 to 100, 0 is no effect, 100 is complete control
[18] = Postemergence, 125 g ai/ha, scale 0 to 100 (0 no effect, 100 complete control)
[19] = Postemergence, 250 g ai/ha, scale 0 to 100 (0 no effect, 100 complete control)

For `O=C1CCCC(O)=C1C(=O)c1cnc(-c2ccsc2)n(C2CCCCC2)c1=O` [Compound 99], the “Windgrass plant response rating (0 to 100 scale)” value [1, 16] was 5, the “Plant response rating, Windgrass” value ([1]; 125 g ai/ha) was 10 and the “Plant response rating, Windgrass” value ([1]; 250 g ai/ha) was 60. The “Plant response rating, Chickweed” value [2, 17] was 80, the “Chickweed plant response rating (0 to 100 scale)” value [2, 16] was 98 and the “Plant response rating, Chickweed” value [2, 18] was 98. The “Plant response rating, Chickweed” value [2, 19] was 98, the “Plant response rating, Canarygrass” value [3, 17] was 40 and the “Canarygrass plant response rating (0 to 100 scale)” value [3, 16] was 60. The “Plant response rating, Canarygrass” value [3, 18] was 60, the “Plant response rating, Canarygrass” value [3, 19] was 70 and the “Velvetleaf plant response rating (0 to 100 scale)” value [4, 16] was 100. For the same molecule, the “Plant response rating, Velvetleaf” value ([4]; 125 g ai/ha) was 100, the “Plant response rating, Velvetleaf” value ([4]; 250 g ai/ha) was 100 and the “Plant response rating, Johnsongrass” value [5, 17] was 70. For the same molecule, the “Johnsongrass plant response rating (0 to 100 scale)” value [5, 16] was 75, the “Plant response rating, Johnsongrass” value [5, 18] was 80 and the “Plant response rating, Johnsongrass” value [5, 19] was 95. The “Plant response rating, Nutsedge, Yellow” value [6, 17] was 45, the “Nutsedge, Yellow plant response rating (0 to 100 scale)” value [6, 16] was 70 and the “Plant response rating, Nutsedge, Yellow” value [6, 18] was 70. For the same molecule, the “Plant response rating, Nutsedge, Yellow” value [6, 19] was 75, the “Plant response rating, Foxtail, Giant” value [7, 17] was 75 and the “Foxtail, Giant plant response rating (0 to 100 scale)” value [7, 16] was 80. The “Plant response rating, Foxtail, Giant” value [7, 18] was 95, the “Plant response rating, Foxtail, Giant” value [7, 19] was 95 and the “Plant response rating, Bermudagrass” value [8, 17] was 75. For the same molecule, the “Bermudagrass plant response rating (0 to 100 scale)” value [8, 16] was 75, the “Plant response rating, Bermudagrass” value [8, 18] was 80 and the “Plant response rating, Bermudagrass” value [8, 19] was 98. The “Plant response rating, Blackgrass” value [9, 17] was 0, the “Blackgrass plant response rating (0 to 100 scale)” value [9, 16] was 0 and the “Plant response rating, Blackgrass” value [9, 18] was 5. For the same molecule, the “Plant response rating, Blackgrass” value [9, 19] was 15, the “Plant response rating, Morningglory” value [10, 17] was 100 and the “Morningglory plant response rating (0 to 100 scale)” value [10, 16] was 100. For the same molecule, the “Plant response rating, Morningglory” value [10, 18] was 100, the “Plant response rating, Morningglory” value [10, 19] was 100 and the “Soybean plant response rating (0 to 100 scale)” value (soybean (Glycine max); [16]) was 100. The “Plant response rating, Soybean” value (soybean (Glycine max); 125 g ai/ha) was 100, the “Plant response rating, Soybean” value (soybean (Glycine max); 250 g ai/ha) was 100 and the “Wheat plant response rating (0 to 100 scale)” value [11, 16] was 5. The “Plant response rating, Wheat” value ([11]; 125 g ai/ha) was 5, the “Plant response rating, Wheat” value ([11]; 250 g ai/ha) was 5 and the “Plant response rating, Cocklebur” value [12, 17] was 95. For the same molecule, the “Cocklebur plant response rating (0 to 100 scale)” value [12, 16] was 100, the “Plant response rating, Cocklebur” value [12, 18] was 100 and the “Plant response rating, Cocklebur” value [12, 19] was 100. The “Plant response rating, Kochia” value (kochia (Kochia scoparia); [17]) was 80, the “Kochia plant response rating (0 to 100 scale)” value (kochia (Kochia scoparia); [16]) was 80 and the “Plant response rating, Kochia” value (kochia (Kochia scoparia); [18]) was 100. For the same molecule, the “Plant response rating, Kochia” value (kochia (Kochia scoparia); [19]) was 100, the “Ragweed plant response rating (0 to 100 scale)” value [13, 16] was 80 and the “Plant response rating, Ragweed” value ([13]; 125 g ai/ha) was 80. For the same molecule, the “Plant response rating, Ragweed” value ([13]; 250 g ai/ha) was 95, the “Plant response rating, Foxtail, Green” value [14, 17] was 50 and the “Foxtail, Green plant response rating (0 to 100 scale)” value [14, 16] was 90. The “Plant response rating, Foxtail, Green” value [14, 18] was 95, the “Plant response rating, Foxtail, Green” value [14, 19] was 98 and the “Plant response rating, Bromegrass, Downy” value [15, 17] was 5. For the same molecule, the “Bromegrass, Downy plant response rating (0 to 100 scale)” value [15, 16] was 5, the “Plant response rating, Bromegrass, Downy” value [15, 18] was 25 and the “Plant response rating, Bromegrass, Downy” value [15, 19] was 25. For the same molecule, the “Plant response rating, Oat, Wild” value (wild oat (Avena fatua); [17]) was 10, the “Oat, Wild plant response rating (0 to 100 scale)” value (wild oat (Avena fatua); [16]) was 20 and the “Plant response rating, Oat, Wild” value (wild oat (Avena fatua); [18]) was 40. For the same molecule, the “Plant response rating, Oat, Wild” value (wild oat (Avena fatua); [19]) was 80.
